Molecules are shown by their SMILES. Like-named read-outs stand apart in the source and are kept apart here.

What is called Emax is the maximal effect, on the per cent scale that the assay sets. What is called EC50 is the midpoint of the concentration-response curve. Broadly, the Ki is the dissociation constant of the complex between target and ligand, obtained from inhibition or displacement.

The target of test [1] is T1, hGIPR (Homo sapiens, UniProt P48546).
T1 construct: expressed in transfected cells
T1 sequence (P48546 22-466): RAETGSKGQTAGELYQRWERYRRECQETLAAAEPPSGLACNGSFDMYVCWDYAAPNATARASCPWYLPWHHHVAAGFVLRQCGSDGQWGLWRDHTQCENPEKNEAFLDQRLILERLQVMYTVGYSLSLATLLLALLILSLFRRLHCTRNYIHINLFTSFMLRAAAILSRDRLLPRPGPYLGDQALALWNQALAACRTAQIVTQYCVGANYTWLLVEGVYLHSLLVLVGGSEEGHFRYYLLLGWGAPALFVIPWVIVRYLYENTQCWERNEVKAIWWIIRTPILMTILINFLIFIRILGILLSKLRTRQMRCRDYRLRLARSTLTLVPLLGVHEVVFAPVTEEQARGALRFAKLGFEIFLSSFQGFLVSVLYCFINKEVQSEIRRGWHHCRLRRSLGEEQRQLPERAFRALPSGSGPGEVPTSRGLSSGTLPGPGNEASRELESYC
Nature of the test: Functional cAMP formation (HTRF) in HEK-293 clonal cells expressing hGIPR, 0.1% bovine casein, without or with 1.0% human serum albumin. Format: cell-based. To be noted: 37° C.; for Emax: HEK293, cAMP, percent of maximal response to GIP(1-42)NH2, read-out: hGIPR Emax, % ± SEM; for EC50: cAMP, 0.1% bovine casein (no human serum albumin), geometric mean, read-out: hGIPR EC50, nM (SEM, n). In a few lines:
(§1)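 Cells were stimulated with peptide for 30 min at 37° C, then lysed in buffer carrying cAMP-d2 and anti-cAMP Eu3+-cryptate for a competitive HTRF read after at least 60 min at room temperature. The 665/620 nm ratio was converted to nM cAMP against a standard curve.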
(In general: Cyclic AMP is a second messenger, typically raised through Gs and lowered through Gi signalling.)

In test [2] the target is T2, human GLP-1 receptor (hGLP-1R) (Homo sapiens, UniProt P43220).
T2 construct: expressed in transfected cells; crude membranes
T2 sequence (P43220 24-463): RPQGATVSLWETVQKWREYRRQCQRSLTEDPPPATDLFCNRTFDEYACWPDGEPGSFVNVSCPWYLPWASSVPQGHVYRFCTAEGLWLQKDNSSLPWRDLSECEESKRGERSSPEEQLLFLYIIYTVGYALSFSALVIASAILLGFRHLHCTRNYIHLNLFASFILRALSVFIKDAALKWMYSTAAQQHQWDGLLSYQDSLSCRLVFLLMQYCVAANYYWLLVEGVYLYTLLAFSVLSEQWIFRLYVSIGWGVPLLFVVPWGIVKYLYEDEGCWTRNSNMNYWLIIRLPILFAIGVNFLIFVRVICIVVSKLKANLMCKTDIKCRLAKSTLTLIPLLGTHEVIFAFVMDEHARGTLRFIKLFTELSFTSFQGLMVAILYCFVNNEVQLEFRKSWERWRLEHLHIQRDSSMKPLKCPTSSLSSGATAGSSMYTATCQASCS
Nature of the test: [125I]-GLP-1 binding, SPA with membranes of HEK293 cells expressing hGLP-1R. To be noted: human GLP-1R; geometric mean (SEM, n); read-out: Binding Affinity Ki, nM (SEM, n) hGLP-1R.

Test [3] deals with T3, human GIP receptor (hGIPR) (Homo sapiens, UniProt P48546).
T3 construct: expressed in transfected cells; crude membranes
T3 sequence (P48546 22-466): T1 sequence (P48546 22-466)
Kind of test: [125I]-GIP binding, SPA with membranes of CHO cells expressing hGIPR. To be noted: human GIPR; geometric mean (SEM, n); read-out: Binding Affinity Ki, nM (SEM, n) hGIPR.

In test [4] the target is hGLP-1R (Homo sapiens, UniProt P43220). Kind of test: Functional cAMP formation (HTRF) in HEK-293 clonal cells expressing hGLP-1R, 0.1% bovine casein, without or with 1.0% human serum albumin. It is filed as cell-based. More on the design: expressed in transfected cells. The conditions noted are these: 37° C.; for Emax: HEK293, cAMP, percent of maximal response to GLP-1(7-36)NH2, read-out: hGLP-1R Emax, % ± SEM; for EC50: cAMP, read-out: hGLP-1R EC50, nM (SEM, n). In outline:
as §1

For test [5], the target named is T4, hGCGR (Homo sapiens, UniProt P47871).
T4 construct: expressed in transfected cells
T4 sequence (P47871 26-477): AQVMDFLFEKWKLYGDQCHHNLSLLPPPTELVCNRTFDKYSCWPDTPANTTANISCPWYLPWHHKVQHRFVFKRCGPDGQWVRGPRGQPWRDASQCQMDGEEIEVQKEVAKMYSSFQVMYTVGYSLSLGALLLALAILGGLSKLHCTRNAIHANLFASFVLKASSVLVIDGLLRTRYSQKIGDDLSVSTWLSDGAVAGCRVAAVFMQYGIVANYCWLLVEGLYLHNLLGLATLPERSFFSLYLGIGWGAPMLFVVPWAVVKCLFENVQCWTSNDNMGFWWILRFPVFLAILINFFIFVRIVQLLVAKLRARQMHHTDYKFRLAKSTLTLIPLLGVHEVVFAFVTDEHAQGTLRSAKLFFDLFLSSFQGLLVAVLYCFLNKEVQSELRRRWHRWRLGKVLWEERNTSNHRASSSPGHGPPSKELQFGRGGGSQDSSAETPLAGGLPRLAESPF
Kind of test: Functional cAMP formation (HTRF) in HEK-293 clonal cells expressing hGCGR, 0.1% bovine casein, without or with 1.0% human serum albumin. It is filed as cell-based. The conditions noted are these: cAMP, 37° C., read-out: hGCGR EC50, nM (SEM, n). In outline:
as §1

Where [6] appears, read: 0.1% bovine casein and 1.0% human serum albumin.
[7] abbreviates: 0.1% bovine casein (no human serum albumin), geometric mean.
[8] abbreviates: 0.1% bovine casein and 1.0% human serum albumin, geometric mean (SEM, n).
Setting [9] is: 0.1% bovine casein, arithmetic mean.

Chain of hGLP-1R (P43220 24-463): as the sequence (P43220 24-463) above

Turning to `CCCCCCCCCCCC(=O)N[C@@H](CCC(=O)NCCOCCOCC(=O)NCCOCCOCC(=O)NCCOCCOCC(=O)NCCCC[C@H](NC(=O)[C@H](CO)NC(=O)[C@@H]1CCCN1C(=O)[C@@H]1CCCN1C(=O)[C@@H]1CCCN1C(=O)[C@H](C)NC(=O)CNC(=O)[C@H](CO)NC(=O)[C@H](CO)NC(=O)[C@@H]1CCCN1C(=O)CNC(=O)CNC(=O)[C@H](CCC(=O)O)NC(=O)[C@@H](NC(=O)[C@H](CC(C)C)NC(=O)[C@](C)(Cc1ccc(O)cc1)NC(=O)[C@@H](CCC(=O)O)NC(=O)[C@@H](NC(=O)[C@H](Cc1ccccc1)NC(=O)[C@H](CCC(=O)O)NC(=O)C(C)(C)NC(=O)[C@H](CCC(N)=O)NC(=O)[C@H](C)NC(=O)[C@H](CCCCNC(=O)COCCOCCNC(=O)COCCOCCNC(=O)COCCOCCNC(=O)CC[C@H](NC(=O)CCCCCCCCCCC)C(=O)O)NC(=O)[C@H](CCCN)NC(=O)[C@H](CC(=O)O)NC(=O)[C@H](CC(C)C)NC(=O)[C@](C)(CC(C)C)NC(=O)[C@@H](NC(=O)C(C)(C)NC(=O)[C@H](Cc1ccncc1)NC(=O)[C@H](CC(=O)O)NC(=O)[C@H](CO)NC(=O)[C@@H](NC(=O)[C@](C)(Cc1ccccc1F)NC(=O)[C@@H](NC(=O)CNC(=O)[C@H](CCC(=O)O)NC(=O)C(C)(C)NC(=O)[C@@H](N)Cc1ccc(O)cc1)[C@@H](C)O)[C@@H](C)O)[C@@H](C)CC)[C@@H](C)CC)[C@@H](C)CC)C(N)=O)C(=O)O` [Example 424], the Emax was determined as 89.5% in test [1] (setting [6]) and 98.1% in test [4] (setting [6]). Moreover, the EC50 in test [1] is 0.00502 nM; in test [4] (setting [7]) it was 0.0427 nM; in test [4] (setting [8]) it was 3.07 nM; in test [5] (setting [7]), more than 9950 nM; in test [5] (setting [8]) it was more than 9950 nM. The inhibition constant (Ki) in test [2] is 0.219 nM; in test [3], 0.0206 nM.

On to `CC[C@H](C)[C@H](NC(=O)[C@H](CC(C)C)NC(=O)[C@](C)(Cc1ccc(O)cc1)NC(=O)[C@H](CCCCNC(=O)CC[C@H](NC(=O)COCCOCCNC(=O)COCCOCCNC(=O)CC[C@H](NC(=O)CCCCCCCCCCCCC(=O)O)C(=O)O)C(=O)O)NC(=O)[C@@H](NC(=O)[C@H](Cc1ccccc1)NC(=O)[C@H](CCCN)NC(=O)C(C)(C)NC(=O)[C@H](CCC(N)=O)NC(=O)[C@H](C)NC(=O)[C@H](CCC(N)=O)NC(=O)[C@H](CCCN)NC(=O)[C@H](CC(=O)O)NC(=O)[C@H](CC(C)C)NC(=O)[C@](C)(CC(C)C)NC(=O)[C@@H](NC(=O)C(C)(C)NC(=O)[C@H](Cc1ccncc1)NC(=O)[C@H](CC(=O)O)NC(=O)[C@H](CO)NC(=O)[C@@H](NC(=O)[C@](C)(Cc1ccccc1F)NC(=O)[C@@H](NC(=O)CNC(=O)[C@H](CCC(=O)O)NC(=O)C(C)(C)NC(=O)[C@@H](N)Cc1ccc(O)cc1)[C@@H](C)O)[C@@H](C)O)[C@@H](C)CC)[C@@H](C)CC)C(=O)N[C@@H](CCCCNC(=O)CC[C@H](NC(=O)COCCOCCNC(=O)COCCOCCNC(=O)CC[C@H](NC(=O)CCCCCCCCCCCCC(=O)O)C(=O)O)C(=O)O)C(=O)NCC(=O)NCC(=O)N1CCC[C@H]1C(=O)N[C@@H](CO)C(=O)N[C@@H](CO)C(=O)NCC(=O)N[C@@H](C)C(=O)N1CCC[C@H]1C(=O)N1CCC[C@H]1C(=O)N1CCC[C@H]1C(=O)N[C@@H](CO)C(N)=O` [Example 482], for which the EC50 in test [1] is 0.0158 nM; in test [4] (setting [7]) it was 0.169 nM; in test [5] (setting [7]), more than 9950 nM; in test [5] (setting [8]), more than 9950 nM. The Ki is 0.254 nM in test [2] and 0.0277 nM in test [3]. Moreover, the figures for the Emax in test [4] (setting [6]) and in test [4] (setting [9]) were 110% and 118%, respectively.

Consider `CC[C@H](C)[C@H](NC(=O)[C@H](CC(C)C)NC(=O)[C@](C)(Cc1ccc(O)cc1)NC(=O)[C@H](CCCCNC(=O)COCCOCCNC(=O)COCCOCCNC(=O)CC[C@H](NC(=O)CCCCCCCCCCCCC(=O)O)C(=O)O)NC(=O)[C@@H](NC(=O)[C@H](Cc1ccccc1)NC(=O)[C@H](CCCN)NC(=O)C(C)(C)NC(=O)[C@H](CCC(N)=O)NC(=O)[C@H](C)NC(=O)[C@H](CCC(N)=O)NC(=O)[C@H](CCCN)NC(=O)[C@H](CC(=O)O)NC(=O)[C@H](CC(C)C)NC(=O)[C@](C)(CC(C)C)NC(=O)[C@@H](NC(=O)C(C)(C)NC(=O)[C@H](Cc1ccncc1)NC(=O)[C@H](CC(=O)O)NC(=O)[C@H](CO)NC(=O)[C@@H](NC(=O)[C@](C)(Cc1ccccc1F)NC(=O)[C@@H](NC(=O)CNC(=O)[C@H](CCC(=O)O)NC(=O)C(C)(C)NC(=O)[C@@H](N)Cc1ccc(O)cc1)[C@@H](C)O)[C@@H](C)O)[C@@H](C)CC)[C@@H](C)CC)C(=O)N[C@@H](CCCCNC(=O)COCCOCCNC(=O)COCCOCCNC(=O)CC[C@H](NC(=O)CCCCCCCCCCCCC(=O)O)C(=O)O)C(=O)NCC(=O)NCC(=O)N1CCC[C@H]1C(=O)N[C@@H](CO)C(=O)N[C@@H](CO)C(=O)NCC(=O)N[C@@H](C)C(=O)N1CCC[C@H]1C(=O)N1CCC[C@H]1C(=O)N1CCC[C@H]1C(=O)N[C@@H](CO)C(N)=O` [Example 391], for which the Emax in test [1] (setting [6]) came to 88.3%; in test [4] (setting [6]) it was 105%; in test [4] (setting [9]), 109%. Further, the EC50 in test [1] was 0.0101 nM; in test [4] (setting [7]) it was 0.167 nM; in test [5] (setting [7]), more than 9950 nM; in test [5] (setting [8]), more than 9950 nM. Also, the Ki is 0.346 nM in test [2] and 0.0279 nM in test [3].

As to `CC[C@H](C)[C@H](NC(=O)[C@H](CC(C)C)NC(=O)[C@](C)(Cc1ccc(O)cc1)NC(=O)[C@H](CCCCNC(=O)COCCOCCNC(=O)COCCOCCNC(=O)CC[C@H](NC(=O)CCCCCCCCCCCCC(=O)O)C(=O)O)NC(=O)[C@@H](NC(=O)[C@H](Cc1ccccc1)NC(=O)[C@H](CCCN)NC(=O)C(C)(C)NC(=O)[C@H](CCC(N)=O)NC(=O)[C@H](C)NC(=O)[C@H](CCC(N)=O)NC(=O)[C@H](CCCN)NC(=O)[C@H](CC(=O)O)NC(=O)[C@H](CC(C)C)NC(=O)[C@](C)(CC(C)C)NC(=O)[C@@H](NC(=O)[C@H](CO)NC(=O)[C@H](CCc1ccc(O)cc1)NC(=O)[C@H](CC(=O)O)NC(=O)[C@H](CO)NC(=O)[C@@H](NC(=O)[C@](C)(Cc1ccccc1F)NC(=O)[C@@H](NC(=O)CNC(=O)[C@H](CCC(=O)O)NC(=O)C(C)(C)NC(=O)[C@@H](N)Cc1ccc(O)cc1)[C@@H](C)O)[C@@H](C)O)[C@@H](C)CC)[C@@H](C)CC)C(=O)N[C@@H](CCCCNC(=O)COCCOCCNC(=O)COCCOCCNC(=O)CC[C@H](NC(=O)CCCCCCCCCCCCC(=O)O)C(=O)O)C(=O)NCC(=O)NCC(=O)N1CCC[C@H]1C(=O)N[C@@H](CO)C(=O)N[C@@H](CO)C(=O)NCC(=O)N[C@@H](C)C(=O)N1CCC[C@H]1C(=O)N1CCC[C@H]1C(=O)N1CCC[C@H]1C(=O)N[C@@H](CO)C(N)=O` [Example 491], the Emax came out at 87.5% in test [1] (setting [6]), 100% in test [1] (setting [9]), 105% in test [4] (setting [6]) and 119% in test [4] (setting [9]). Moreover, the EC50 in test [1] is 0.0148 nM; in test [4] (setting [7]), 0.148 nM; in test [5] (setting [7]), more than 9950 nM; in test [5] (setting [8]) it was more than 9950 nM. Further, the Ki in test [2] amounted to 0.182 nM; in test [3], 0.0301 nM.
